What was measured:
Experiment in all cases: Test E greenhouse herbicide test, pre- and postemergence
Format in all cases: in vivo
[1] = test system: foxtail, green (green foxtail, Setaria viridis); conditions: Preemergence
How it was run: (§1)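 Pre- and postemergence sprays, same solvent–surfactant formulation. Substrate: silt loam (pre), peat-based mix (post, 1–4 leaf, 2–18 cm). Readout: visual control rating 0–100 against controls at 14–21 d.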

[2] = test system: Italian ryegrass (Lolium multiflorum)
How it was run: as §1

[3] = test system: arrowleaf sida (Sida rhombifolia)
How it was run: as §1

[4] = test system: dayflower (Virginia (VA) dayflower, Commelina virginica)
How it was run: as §1

[5] = test system: crabgrass, Brazilian (Brazilian crabgrass, Digitaria horizontalis)
How it was run: as §1

[6] = test system: panicum, fall (fall panicum, Panicum dichotomiflorum)
How it was run: as §1

[7] = test system: barnyardgrass (Echinochloa crus-galli)
How it was run: as §1

[8] = test system: momingglory (Ipomoea coccinea); conditions: Preemergence
How it was run: as §1

[9] = test system: sandbur (southem sandbur, Cenchrus echinatus)
How it was run: as §1

[10] = test system: horseweed (Conyza canadensis)
How it was run: as §1

[11] = test system: goosegrass (Eleusine indica); conditions: Preemergence
How it was run: as §1

[12] = test system: soybean (Glycine max)
How it was run: as §1

[13] = test system: nutsedge, yellow (yellow nutsedge, Cyperus esculentus); conditions: Preemergence
How it was run: as §1

[14] = test system: ragweed (common ragweed, Ambrosia elatior)
How it was run: as §1

[15] = test system: corn (Zea mays)
How it was run: as §1

[16] = 62 g ai/ha, scale 0 to 100 (0 no effect, 100 complete control)
[17] = 31 g ai/ha, scale 0 to 100, 0 no effect, 100 complete control
[18] = 125 g ai/ha, visual, scale 0 no effect to 100 complete control
[19] = 62 g ai/ha, Preemergence, scale 0 to 100 (0 no effect, 100 complete control)
[20] = 125 g ai/ha, Preemergence, scale 0 to 100 (0 no effect, 100 complete control)
[21] = Preemergence, 31 g ai/ha, scale 0 to 100, 0 no effect, 100 complete control
[22] = Preemergence, 125 g ai/ha, visual, scale 0 no effect to 100 complete control
[23] = 125 g ai/ha, scale 0 to 100 (0 no effect, 100 complete control)
[24] = 250 g ai/ha, visual, scale 0 no effect to 100 complete control
[25] = 62 g ai/ha, Postemergence, scale 0 to 100 (0 no effect, 100 complete control)
[26] = 125 g ai/ha, Postemergence, scale 0 to 100 (0 no effect, 100 complete control)
[27] = 250 g ai/ha, Postemergence, scale 0 to 100 (0 no effect, 100 complete control)
[28] = Postemergence, 31 g ai/ha, visual, scale 0 no effect to 100 complete control
[29] = Preemergence, 250 g ai/ha, visual, scale 0 no effect to 100 complete control

Cc1cc(C)c2ccccc2c1-c1c(O)c(C)nn(C)c1=O [Compound 21]
75: Plant response rating, Nutsedge, Yellow [13, 16]
0: Plant response rating, Arrowleaf Sida [3, 19] | Plant response rating, Arrowleaf Sida [3, 21] | Plant response rating, Nutsedge, Yellow [13, 17] | Plant response rating, Corn [15, 19] | Plant response rating, Corn [15, 21]
70: Plant response rating, Barnyardgrass [7, 19]
80: Plant response rating, Dayflower, VA [4, 21] | Plant response rating, Dayflower, VA [4, 22] | Plant response rating, Sandbur [9, 19] | Plant response rating, Sandbur [9, 21] | Plant response rating, Nutsedge, Yellow [13, 23]
40: Plant response rating, Barnyardgrass [7, 21]
95: Plant response rating, Foxtail, Green [1, 17] | Plant response rating, Goosegrass [11, 16] | Plant response rating, Goosegrass [11, 18] | Plant response rating, Ragweed [14, 21]
90: Plant response rating, Crabgrass, Brazil [5, 21] | Plant response rating, Barnyardgrass [7, 22] | Plant response rating, Morningglory [8, 17] | Plant response rating, Sandbur [9, 20] | Plant response rating, Goosegrass [11, 17]
100: Plant response rating, Foxtail, Green [1, 16] | Plant response rating, Foxtail, Green [1, 18] | Plant response rating, Ryegrass, Italian [2, 19] | Plant response rating, Ryegrass, Italian [2, 20] | Plant response rating, Ryegrass, Italian [2, 21] | Plant response rating, Crabgrass, Brazil [5, 22] | Plant response rating, Panicum, Fall [6, 19] | Plant response rating, Panicum, Fall [6, 20] | Plant response rating, Panicum, Fall [6, 21] | Plant response rating, Morningglory [8, 23] | Plant response rating, Horseweed [10, 19] | Plant response rating, Horseweed [10, 21] | Plant response rating, Horseweed [10, 22] | Plant response rating, Ragweed [14, 20]
50: Plant response rating, Arrowleaf Sida [3, 22]
35: Plant response rating, Soybean [12, 19] | Plant response rating, Soybean [12, 20] | Plant response rating, Soybean [12, 21]
98: Plant response rating, Crabgrass, Brazil [5, 19] | Plant response rating, Morningglory [8, 16] | Plant response rating, Ragweed [14, 19]
30: Plant response rating, Corn [15, 22]
60: Plant response rating, Dayflower, VA [4, 19]

Cc1nn(C)c(=O)c(-c2ccc(F)c3ccccc23)c1O [Compound 41]
25: Plant response rating, Foxtail, Green [1, 16] | Plant response rating, Panicum, Fall [6, 25] | Plant response rating, Barnyardgrass [7, 19] | Plant response rating, Nutsedge, Yellow [13, 17] | Plant response rating, Corn [15, 29]
40: Plant response rating, Dayflower, VA [4, 25] | Plant response rating, Dayflower, VA [4, 19] | Plant response rating, Barnyardgrass [7, 22] | Plant response rating, Soybean [12, 25]
35: Plant response rating, Barnyardgrass [7, 25] | Plant response rating, Soybean [12, 19]
10: Plant response rating, Crabgrass, Brazil [5, 28] | Plant response rating, Barnyardgrass [7, 21]
90: Plant response rating, Ryegrass, Italian [2, 27] | Plant response rating, Arrowleaf Sida [3, 25] | Plant response rating, Arrowleaf Sida [3, 27] | Plant response rating, Dayflower, VA [4, 27] | Plant response rating, Panicum, Fall [6, 19] | Plant response rating, Morningglory [8, 23] | Plant response rating, Ragweed [14, 26] | Plant response rating, Ragweed [14, 20]
80: Plant response rating, Ryegrass, Italian [2, 28] | Plant response rating, Dayflower, VA [4, 29] | Plant response rating, Crabgrass, Brazil [5, 21] | Plant response rating, Crabgrass, Brazil [5, 29] | Plant response rating, Panicum, Fall [6, 21] | Plant response rating, Sandbur [9, 29] | Plant response rating, Horseweed [10, 25] | Plant response rating, Horseweed [10, 26] | Plant response rating, Ragweed [14, 28]
95: Plant response rating, Arrowleaf Sida [3, 26] | Plant response rating, Panicum, Fall [6, 20] | Plant response rating, Morningglory [8, 24] | Plant response rating, Ragweed [14, 27]
5: Plant response rating, Ragweed [14, 21] | Plant response rating, Corn [15, 27]
70: Plant response rating, Dayflower, VA [4, 22] | Plant response rating, Sandbur [9, 19] | Plant response rating, Sandbur [9, 26] | Plant response rating, Horseweed [10, 27] | Plant response rating, Ragweed [14, 19]
100: Plant response rating, Ryegrass, Italian [2, 19] | Plant response rating, Ryegrass, Italian [2, 20] | Plant response rating, Ryegrass, Italian [2, 29] | Plant response rating, Arrowleaf Sida [3, 29] | Plant response rating, Crabgrass, Brazil [5, 22] | Plant response rating, Horseweed [10, 19] | Plant response rating, Horseweed [10, 21] | Plant response rating, Horseweed [10, 22] | Plant response rating, Horseweed [10, 29] | Plant response rating, Ragweed [14, 29]
60: Plant response rating, Barnyardgrass [7, 27] | Plant response rating, Sandbur [9, 28] | Plant response rating, Goosegrass [11, 24] | Plant response rating, Soybean [12, 26]
20: Plant response rating, Foxtail, Green [1, 17] | Plant response rating, Arrowleaf Sida [3, 21] | Plant response rating, Crabgrass, Brazil [5, 25] | Plant response rating, Barnyardgrass [7, 28] | Plant response rating, Soybean [12, 20]
85: Plant response rating, Ryegrass, Italian [2, 25] | Plant response rating, Ryegrass, Italian [2, 26] | Plant response rating, Arrowleaf Sida [3, 28] | Plant response rating, Dayflower, VA [4, 26] | Plant response rating, Nutsedge, Yellow [13, 24]
0: Plant response rating, Goosegrass [11, 16] | Plant response rating, Goosegrass [11, 17] | Plant response rating, Soybean [12, 21] | Plant response rating, Corn [15, 25] | Plant response rating, Corn [15, 19] | Plant response rating, Corn [15, 26] | Plant response rating, Corn [15, 28] | Plant response rating, Corn [15, 21] | Plant response rating, Corn [15, 22]
98: Plant response rating, Ryegrass, Italian [2, 21] | Plant response rating, Arrowleaf Sida [3, 22] | Plant response rating, Panicum, Fall [6, 29]
30: Plant response rating, Crabgrass, Brazil [5, 26] | Plant response rating, Panicum, Fall [6, 26] | Plant response rating, Morningglory [8, 17] | Plant response rating, Soybean [12, 28]
65: Plant response rating, Crabgrass, Brazil [5, 19] | Plant response rating, Barnyardgrass [7, 29] | Plant response rating, Soybean [12, 29] | Plant response rating, Nutsedge, Yellow [13, 16]
15: Plant response rating, Dayflower, VA [4, 21] | Plant response rating, Panicum, Fall [6, 28]
50: Plant response rating, Foxtail, Green [1, 18] | Plant response rating, Arrowleaf Sida [3, 19] | Plant response rating, Dayflower, VA [4, 28] | Plant response rating, Crabgrass, Brazil [5, 27] | Plant response rating, Panicum, Fall [6, 27] | Plant response rating, Barnyardgrass [7, 26] | Plant response rating, Morningglory [8, 16] | Plant response rating, Sandbur [9, 25] | Plant response rating, Sandbur [9, 21] | Plant response rating, Goosegrass [11, 18]
75: Plant response rating, Foxtail, Green [1, 24] | Plant response rating, Sandbur [9, 20] | Plant response rating, Sandbur [9, 27] | Plant response rating, Horseweed [10, 28] | Plant response rating, Soybean [12, 27] | Plant response rating, Nutsedge, Yellow [13, 23]

Cc1ccc2ccccc2c1-c1c(O)c(I)nn(C)c1=O [Compound 29]
85: Plant response rating, Panicum, Fall [6, 21] | Plant response rating, Ragweed [14, 19]
100: Plant response rating, Foxtail, Green [1, 24] | Plant response rating, Ryegrass, Italian [2, 29] | Plant response rating, Horseweed [10, 19] | Plant response rating, Horseweed [10, 21] | Plant response rating, Horseweed [10, 22] | Plant response rating, Horseweed [10, 29]
60: Plant response rating, Dayflower, VA [4, 29]
80: Plant response rating, Morningglory [8, 23]
0: Plant response rating, Dayflower, VA [4, 19] | Plant response rating, Dayflower, VA [4, 21] | Plant response rating, Barnyardgrass [7, 21] | Plant response rating, Goosegrass [11, 17] | Plant response rating, Nutsedge, Yellow [13, 16] | Plant response rating, Nutsedge, Yellow [13, 17] | Plant response rating, Corn [15, 19] | Plant response rating, Corn [15, 21] | Plant response rating, Corn [15, 22] | Plant response rating, Corn [15, 29]
30: Plant response rating, Crabgrass, Brazil [5, 21] | Plant response rating, Nutsedge, Yellow [13, 23]
90: Plant response rating, Foxtail, Green [1, 18] | Plant response rating, Arrowleaf Sida [3, 19] | Plant response rating, Crabgrass, Brazil [5, 29] | Plant response rating, Barnyardgrass [7, 29] | Plant response rating, Sandbur [9, 20] | Plant response rating, Sandbur [9, 29] | Plant response rating, Goosegrass [11, 24] | Plant response rating, Ragweed [14, 21]
25: Plant response rating, Barnyardgrass [7, 19]
20: Plant response rating, Goosegrass [11, 16]
75: Plant response rating, Foxtail, Green [1, 16] | Plant response rating, Ryegrass, Italian [2, 19] | Plant response rating, Crabgrass, Brazil [5, 19] | Plant response rating, Sandbur [9, 19] | Plant response rating, Sandbur [9, 21]
70: Plant response rating, Arrowleaf Sida [3, 21] | Plant response rating, Crabgrass, Brazil [5, 22] | Plant response rating, Soybean [12, 20] | Plant response rating, Soybean [12, 21] | Plant response rating, Nutsedge, Yellow [13, 24] | Plant response rating, Ragweed [14, 20]
10: Plant response rating, Dayflower, VA [4, 22]
65: Plant response rating, Foxtail, Green [1, 17] | Plant response rating, Ryegrass, Italian [2, 21] | Plant response rating, Barnyardgrass [7, 22] | Plant response rating, Morningglory [8, 16]
50: Plant response rating, Goosegrass [11, 18] | Plant response rating, Soybean [12, 19] | Plant response rating, Soybean [12, 29]
98: Plant response rating, Arrowleaf Sida [3, 22] | Plant response rating, Arrowleaf Sida [3, 29] | Plant response rating, Panicum, Fall [6, 20] | Plant response rating, Panicum, Fall [6, 29] | Plant response rating, Ragweed [14, 29]
35: Plant response rating, Morningglory [8, 17]
95: Plant response rating, Ryegrass, Italian [2, 20] | Plant response rating, Panicum, Fall [6, 19] | Plant response rating, Morningglory [8, 24]
